Patent US20230226081A1, “PHARMACEUTICAL FORMULATIONS OF ABIRATERONE ACETATE AND NIRAPARIB” (Janssen Pharmaceutica NV, priority 2020, published 2023)

Experiment: Particle size of the drug substances
Format: physicochemical

| Compound | d50 particle size of drug substance |
| --- | --- |
| CC(=O)O[C@H]1CC[C@@]2(C)C(=CC[C@@H]3[C@@H]2CC[C@]2(C)C(c4cccnc4)=CC[C@@H]32)C1 [Abiraterone acetate] | 4-5 μm |
| Cc1ccc(S(=O)(=O)O)cc1.NC(=O)c1cccc2cn(-c3ccc([C@@H]4CCCNC4)cc3)nc12 [niraparib tosylate monohydrate, 2-[4-[(3S)-piperidin-3-yl]phenyl]-2H-indazole-7-carboxamide tosylate monohydrate] | around 50 μm |
